Consider 12 compounds from patent US11919900B1 (priority 2023, dated 2024).

In brackets after ≈: the same amount, converted by molar mass.

For one assay, the system named is Mycobacterium tuberculosis H37Rv (ATCC: 25177). Description: Resazurin Microplate Assay (REMA), antitubercular activity, H37Rv. Format: cell-based. The settings on record: Middlebrook 7H9 broth, 8 days at 37° C. then resazurin overnight.
For “Ethyl 4-bromo-1-(2-nitrobenzoyl)pyrrolo[1,2-a]quinoline-3-carboxylate [QUIN-KNV12]”, the “Antitubercular activity against Mycobacterium tuberculosis H37Rv (MIC)” value is 1 µg/mL.

Still in this assay, the particulars now being: Mycobacterium tuberculosis, 192 h, Middlebrook 7H9 broth, 8 days at 37° C. then resazurin overnight, read-out: Antitubercular activity against Mycobacterium tuberculosis H37Rv (MIC).
As usually defined, the MIC is the lowest concentration found to suppress growth. Consider `COC(=O)c1c(C(=O)OC)c2c(Br)cc3ccccc3n2c1C(=O)c1ccc(OC)cc1` [QUIN-KNV1, Dimethyl 4-bromo-1-(4-methoxybenzoyl)pyrrolo[1,2-a]quinoline-2,3-dicarboxylate], for which the MIC was 0.5 µg/mL (≈ 1.01 µM).

As for `CCOC(=O)c1cc(C(=O)c2ccc(OC)cc2)n2c1c(Br)cc1ccccc12` [QUIN-KNV2, Ethyl 4-bromo-1-(4-methoxybenzoyl)pyrrolo[1,2-a]quinoline-3-carboxylate], the MIC came to 1 µg/mL (≈ 2.21 µM).

`COC(=O)c1c(C(=O)OC)c2c(Br)cc3ccccc3n2c1C(=O)c1ccc(Cl)cc1` [QUIN-KNV3, Dimethyl 4-bromo-1-(4-chlorobenzoyl)pyrrolo[1,2-a]quinoline-2,3-dicarboxylate]: the MIC was 1 µg/mL (≈ 2 µM).

`CCOC(=O)c1cc(C(=O)c2ccc(Cl)cc2)n2c1c(Br)cc1ccccc12` [QUIN-KNV4, Ethyl 4-bromo-1-(4-chlorobenzoyl)pyrrolo[1,2-a]quinoline-3-carboxylate]: the MIC is 8 µg/mL (≈ 17.5 µM).

Regarding `COC(=O)c1c(C(=O)OC)c2c(Br)cc3ccccc3n2c1C(=O)c1ccc(Br)cc1` [QUIN-KNV5, Dimethyl 4-bromo-1-(4-bromobenzoyl)pyrrolo[1,2-a]quinoline-2,3-dicarboxylate], the MIC stood at 0.5 µg/mL (≈ 0.917 µM).

In the case of `CCOC(=O)c1cc(C(=O)c2ccc(Br)cc2)n2c1c(Br)cc1ccccc12` [QUIN-KNV6, Ethyl 4-bromo-1-(4-bromobenzoyl)pyrrolo[1,2-a]quinoline-3-carboxylate], the MIC was determined as 2 µg/mL (≈ 3.99 µM).

For the compound `COC(=O)c1c(C(=O)OC)c2c(Br)cc3ccccc3n2c1C(=O)c1ccc(F)cc1` [QUIN-KNV7, Dimethyl 4-bromo-1-(4-fluorobenzoyl)pyrrolo[1,2-a]quinoline-2,3-dicarboxylate], the MIC stood at 16 µg/mL (≈ 33 µM).

Turning to `CCOC(=O)c1cc(C(=O)c2ccc(F)cc2)n2c1c(Br)cc1ccccc12` [QUIN-KNV8, Ethyl 4-bromo-1-(4-fluorobenzoyl)pyrrolo[1,2-a]quinoline-3-carboxylate], the MIC stood at 1 µg/mL (≈ 2.27 µM).

Turning to `COC(=O)c1c(C(=O)OC)c2c(Br)cc3ccccc3n2c1C(=O)c1ccc(C#N)cc1` [QUIN-KNV9, Dimethyl 4-bromo-1-(4-cyanobenzoyl)pyrrolo[1,2-a]quinoline-2,3-dicarboxylate], the MIC was determined as 8 µg/mL (≈ 16.3 µM).

Consider `CCOC(=O)c1cc(C(=O)c2ccc(C#N)cc2)n2c1c(Br)cc1ccccc12` [QUIN-KNV10, Ethyl 4-bromo-1-(4-cyanobenzoyl)pyrrolo[1,2-a]quinoline-3-carboxylate], for which the MIC turned out to be 8 µg/mL (≈ 17.9 µM).

Take `COC(=O)c1c(C(=O)OC)c2c(Br)cc3ccccc3n2c1C(=O)c1ccccc1` [QUIN-KNV11, Dimethyl 1-benzoyl-4-bromopyrrolo[1,2-a]quinoline-2,3-dicarboxylate]: the MIC worked out at 32 µg/mL (≈ 68.6 µM).
